# According to patent US6737383B1, “Herbicidal oxadiazolidines” (priority 1999, dated 2004):
# How the values were obtained:
# bedstraw = assay: Test B pre/postemergence bedstraw; assay type: in vivo, Galium aparine
# Procedure, shortened: (§1)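 Herbicidal effect was estimated by eye on a ten-point control scale after plants spent twelve to sixteen days in a greenhouse following soil or foliar treatment. Foliar sprays targeted plants at one to four leaves; all doses were formulated in a non-phytotoxic solvent with surfactant.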
# blackgrass = assay: Test B pre/postemergence blackgrass; assay type: in vivo, Alopecurus myosuroides
# Procedure, shortened: as §1
# surinam grass = assay: Test B pre/postemergence surinam grass; assay type: in vivo, Brachiaria decumbens
# Procedure, shortened: as §1
# corn = assay: Test B pre/postemergence corn; assay type: in vivo, Zea mays
# Procedure, shortened: as §1
# crabgrass = assay: Test B pre/postemergence crabgrass; assay type: in vivo, Digitaria sanguinalis
# Procedure, shortened: as §1
# giant foxtail = assay: Test B pre/postemergence giant foxtail; assay type: in vivo, Setaria faberii
# Procedure, shortened: as §1
# morningglory = assay: Test B pre/postemergence morningglory; assay type: in vivo, Ipomoea hederacea
# Procedure, shortened: as §1
# pigweed = assay: Test B pre/postemergence pigweed; assay type: in vivo, Amaranthus retroflexus
# Procedure, shortened: as §1
# rape = assay: Test B pre/postemergence rape; assay type: in vivo, Brassica napus
# Procedure, shortened: as §1
# sugar beet = assay: Test B pre/postemergence sugar beet; assay type: in vivo, Beta vulgaris
# Procedure, shortened: as §1
# wheat = assay: Test B pre/postemergence wheat; assay type: in vivo, Triticum aestivum
# Procedure, shortened: as §1
# wild oat = assay: Test B pre/postemergence wild oat; assay type: in vivo, Avena fatua
# Procedure, shortened: as §1
# purple nutsedge = assay: Test B pre/postemergence purple nutsedge; assay type: in vivo, Cyperus rotundus
# Procedure, shortened: as §1
# rice = assay: Test B flood test rice; assay type: in vivo, Oryza sativa; conditions: Pre-emergence
# Procedure, shortened: (§2)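 Flood test on plants grown to the 2-leaf stage; treated plants kept in greenhouse twelve to sixteen days, then visually rated against controls on a 0 (no effect) to 10 (complete control) scale.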
# smallflower flatsedge = assay: Test B flood test smallflower flatsedge; assay type: in vivo, Cyperus difformis; conditions: Pre-emergence
# Procedure, shortened: as §2
# bamyardgrass = assay: Test B flood test barnyardgrass; assay type: in vivo, Echinochloa crus-galli; conditions: Pre-emergence
# Procedure, shortened: as §2
# [1] = Preemergence, Rate 62 g/ha, scale of 0 to 10 where 0 is no effect and 10 is complete control
# [2] = Preemergence, Rate 250 g/ha, scale of 0 to 10 where 0 is no effect and 10 is complete control
# [3] = Preemergence, Rate 500 g/ha, scale of 0 to 10 where 0 is no effect and 10 is complete control
# [4] = Rate 62 g/ha, Postemergence, scale 0 to 10 (0 no effect, 10 complete control)
# [5] = Rate 125 g/ha, Postemergence, scale of 0 to 10 where 0 is no effect and 10 is complete control
# [6] = Rate 250 g/ha, Postemergence, scale of 0 to 10 where 0 is no effect and 10 is complete control
# [7] = Rate 500 g/ha, Postemergence, scale 0 to 10, 0 no effect, 10 complete control
# [8] = Rate 1000 g/ha, scale 0 to 10 (0 no effect, 10 complete control)
# [9] = Rate 125 g/ha, flood test species, scale 0 to 10 where 0 is no effect and 10 is complete control
# [10] = Rate 250 g/ha, flood-test species, scale 0 to 10, 0 is no effect, 10 is complete control
# [11] = Rate 500 g/ha, flood test species, scale 0 to 10 (0 no effect, 10 complete control)
smiles,measurement,setting,value
CCN(C(=O)n1oc(=O)n(C2CCCCC2)c1=O)C1CCCCC1 [Compound 308],Bedstraw plant response rating,bedstraw; [1],0
same,Bedstraw plant response rating (0 to 10 scale),"bedstraw; Preemergence, Rate 125 g/ha",0
same,Bedstraw plant response rating,bedstraw; [2],0
same,Bedstraw plant response rating,bedstraw; [3],0
same,Bedstraw plant response rating,bedstraw; [4],0
same,Bedstraw plant response rating,bedstraw; [5],0
same,"Plant response rating, Bedstraw",bedstraw; [6],0
same,Bedstraw plant response rating,bedstraw; [7],0
same,Blackgrass plant response rating,blackgrass; [1],0
same,Blackgrass plant response rating (0 to 10 scale),"blackgrass; Preemergence, Rate 125 g/ha",0
same,Blackgrass plant response rating,blackgrass; [2],0
same,Blackgrass plant response rating,blackgrass; [3],0
same,Blackgrass plant response rating,blackgrass; [4],0
same,Blackgrass plant response rating,blackgrass; [5],0
same,"Plant response rating, Blackgrass",blackgrass; [6],0
same,Blackgrass plant response rating,blackgrass; [7],0
same,B. signalgrass plant response rating,surinam grass; [1],0
same,"B. signalgrass plant response rating (0 to 10 scale, 0 is no effect, 10 is complete control)","surinam grass; Preemergence, Rate 125 g/ha",0
same,B. signalgrass plant response rating,surinam grass; [2],0
same,B. signalgrass plant response rating,surinam grass; [3],0
same,B. signalgrass plant response rating,surinam grass; [4],0
same,B. signalgrass plant response rating,surinam grass; [5],0
same,"Plant response rating, B. signalgrass",surinam grass; [6],0
same,B. signalgrass plant response rating,surinam grass; [7],0
same,Corn plant response rating,corn; [1],0
same,Corn plant response rating (0 to 10 scale),"corn; Preemergence, Rate 125 g/ha",0
same,Corn plant response rating,corn; [2],0
same,Corn plant response rating,corn; [3],0
same,Corn plant response rating,corn; [4],0
same,Corn plant response rating,corn; [5],0
same,"Plant response rating, Corn",corn; [6],0
same,Corn plant response rating,corn; [7],0
same,Crabgrass plant response rating,crabgrass; [1],0
same,Crabgrass plant response rating (0 to 10 scale),"crabgrass; Preemergence, Rate 125 g/ha",0
same,Crabgrass plant response rating,crabgrass; [2],0
same,Crabgrass plant response rating,crabgrass; [3],0
same,Crabgrass plant response rating,crabgrass; [4],0
same,Crabgrass plant response rating,crabgrass; [5],0
same,"Plant response rating, Crabgrass",crabgrass; [6],0
same,Giant foxtail plant response rating,giant foxtail; [1],0
same,Giant foxtail plant response rating (0 to 10 scale),"giant foxtail; Preemergence, Rate 125 g/ha",0
same,Giant foxtail plant response rating,giant foxtail; [2],0
same,Giant foxtail plant response rating,giant foxtail; [3],0
same,Giant foxtail plant response rating,giant foxtail; [4],0
same,Giant foxtail plant response rating,giant foxtail; [5],0
same,"Plant response rating, Giant foxtail",giant foxtail; [6],0
same,Morningglory plant response rating,morningglory; [1],0
same,Morningglory plant response rating (0 to 10 scale),"morningglory; Preemergence, Rate 125 g/ha",0
same,Morningglory plant response rating,morningglory; [2],0
same,Morningglory plant response rating,morningglory; [3],0
same,Morningglory plant response rating,morningglory; [4],0
same,Morningglory plant response rating,morningglory; [5],0
same,"Plant response rating, Morningglory",morningglory; [6],2
same,Redroot pigweed plant response rating,pigweed; [1],0
same,Redroot pigweed plant response rating (0 to 10 scale),"pigweed; Preemergence, Rate 125 g/ha",0
same,Redroot pigweed plant response rating,pigweed; [2],0
same,Redroot pigweed plant response rating,pigweed; [3],0
same,Redroot pigweed plant response rating,pigweed; [4],0
same,Redroot pigweed plant response rating,pigweed; [5],0
same,"Plant response rating, Redroot pigweed",pigweed; [6],0
same,Rape plant response rating,rape; [1],0
same,Rape plant response rating (0 to 10 scale),"rape; Preemergence, Rate 125 g/ha",0
same,Rape plant response rating,rape; [2],0
same,Rape plant response rating,rape; [3],0
same,Rape plant response rating,rape; [4],0
same,Rape plant response rating,rape; [5],0
same,"Plant response rating, Rape",rape; [6],0
same,Sugarbeets plant response rating,sugar beet; [1],0
same,Sugarbeets plant response rating (0 to 10 scale),"sugar beet; Preemergence, Rate 125 g/ha",0
same,Sugarbeets plant response rating,sugar beet; [2],0
same,Sugarbeets plant response rating,sugar beet; [3],0
same,Sugarbeets plant response rating,sugar beet; [4],0
same,Sugarbeets plant response rating,sugar beet; [5],0
same,"Plant response rating, Sugarbeets",sugar beet; [6],0
same,Wheat plant response rating,wheat; [1],0
same,Wheat plant response rating (0 to 10 scale),"wheat; Preemergence, Rate 125 g/ha",0
same,Wheat plant response rating,wheat; [2],0
same,Wheat plant response rating,wheat; [3],0
same,Wheat plant response rating,wheat; [4],0
same,Wheat plant response rating,wheat; [5],0
same,"Plant response rating, Wheat",wheat; [6],0
same,Wild oats plant response rating,wild oat; [1],0
same,Wild oats plant response rating (0 to 10 scale),"wild oat; Preemergence, Rate 125 g/ha",0
same,Wild oats plant response rating,wild oat; [2],0
same,Wild oats plant response rating,wild oat; [3],0
same,Wild oats plant response rating,wild oat; [4],0
same,Wild oats plant response rating,wild oat; [5],0
same,"Plant response rating, Wild oats",wild oat; [6],0
same,Nutsedge plant response rating,purple nutsedge; [1],0
same,Nutsedge plant response rating (0 to 10 scale),"purple nutsedge; Preemergence, Rate 125 g/ha",0
same,Nutsedge plant response rating,purple nutsedge; [2],0
same,Nutsedge plant response rating,purple nutsedge; [3],0
same,Nutsedge plant response rating,purple nutsedge; [4],0
same,Nutsedge plant response rating,purple nutsedge; [5],0
same,"Plant response rating, Nutsedge",purple nutsedge; [6],0
same,Rice plant response rating,rice; [8],0
same,Rice plant response rating,rice; [9],0
same,Rice plant response rating,rice; [10],0
same,Rice plant response rating,rice; [11],0
same,S. Flatsedge plant response rating,smallflower flatsedge; [8],0
same,S. Flatsedge plant response rating,smallflower flatsedge; [9],0
same,S. Flatsedge plant response rating,smallflower flatsedge; [10],0
same,S. Flatsedge plant response rating,smallflower flatsedge; [11],0
same,Barnyardgrass plant response rating,bamyardgrass; [8],0
same,Barnyardgrass plant response rating,bamyardgrass; [9],0
same,Barnyardgrass plant response rating,bamyardgrass; [10],0
same,Barnyardgrass plant response rating,bamyardgrass; [11],0
